Reference: patent US20080261986A1, “PHARMACEUTICAL FORMULATIONS FOR IONTOPHORETIC DELIVERY OF AN ANTI-FUNGAL DRUG” (priority 2007, published 2008)
≈ marks a conversion by molar mass, not a printed value. Where “and” joins values, the source holds several entries; their conditions need not be identical. Equal entries are not always repeated. Structures can show the parent of a compound that is named as a salt. Where two headings read alike, the source gives them in different places.

Key:
[1] = Approximate visual solubility in receiver fluids; format: physicochemical
Experimental: The visual solubility of each receiver fluid shown in Table 3 below was initially tested for ketoconazole (BUFA B.V.) and ciclopirox (PCAS Finland Oy). Additional solubility testing was then conducted for terbinafine hydrochloride (QueMaCo Ltd.), amorolfine hydrochloride (Inter-Chemical Ltd.) and itraconazole EP (Shamrock, UK) and the results are shown in Table 3.
The solubility of terbinafine hydrochloride, fluconazole, itraconazole and amorolfine hydrochloride was determined in PBS and 5% Tween 80 and the results are summarized in Table 4.

C. albicans = assay: Permeation across full thickness nail (ChubTur cell), receiver fluid assayed by C. albicans growth absorbance; format: cell-based; conditions: for Absorbance: replicates 1-3, full thickness human nail, C. albicans, 600 nm; for permeation across full thickness nail: all conditions tested (cathodal, anodal, passive)
[2] = format: in vitro ADME, human
Experimental: Prehydrated cadaver finger nails (approximately 0.5-0.7 mm thickness) or bovine hooves (approximately 0.25 mm thickness) were used for comparing different formulations as described in Examples 8-10. […] A nail adaptor was required to accommodate the curvature of the nail, but not for the hoof. The receptor compartments were filled with receiver fluid (3-5 ml water pH 3) and the drug formulations described above (0.5-2 mL) were placed in the donor compartment. […] Receptor levels of drug permeated were analyzed. Aliquots removed were replaced with an equal amount of buffer, and were assayed by HPLC to measure terbinafine HCl permeation through the nail or hoof. Control passive experiments were conducted in the same way except for the application of electric current. Nails or hooves were taken out of the FDC and drug extracted as described in Example 4. The drug loading levels in the nail or hoof were expressed as mg terbinafine HCl per g of nail or hoof. Data were expressed as means ±standard deviations. All experiments were performed in triplicate. […] The four formulations were evaluated for permeation of terbinafine HCl through the nail and loading in the nail as described in Example 8. Formulations containing benzoic acid improved permeation of terbinafine HCl through the nail over the base glycerin formulation without benzoic acid (FIG. 7A).

[3] = aqueous with cosolvent or surfactant or cyclodextrin, Approximate visual solubility

## CCC(C)(C)c1ccc(CC(C)CN2C[C@@H](C)O[C@@H](C)C2)cc1 (stereo partly shown) [Amorolfine hydrochloride, amorolfine hydrochloride]
[1]; [3]
  solubility: 2050 to 2570 µg/mL
C. albicans; Anodal iontophoresis (1000 μA, 1 hr), listed as Amorolifine, hydrochloride
  Absorbance: 0.54 and 0.44 and 0.40
C. albicans; Cathodal iontophoresis, controls: no C. albicans 0.037-0.039, no compound 0.126-0.160, listed as Amorolifine, hydrochloride
  Absorbance: 0.50 and 0.54 and 0.49
C. albicans; Passive permeation, listed as Amorolifine, hydrochloride
  Absorbance: 0.48 and 0.59 and 0.54
C. albicans
  permeation across full thickness nail: did not show permeation of the nail under any conditions tested

## Cc1cc(C2CCCCC2)n(O)c(=O)c1 [Ciclopirox olamine, ciclopirox olamine]
C. albicans; Anodal iontophoresis (1000 μA, 1 hr)
  Absorbance: 0.042 and 0.079
C. albicans; Cathodal iontophoresis, controls: no C. albicans 0.037-0.039, no compound 0.126-0.160
  Absorbance: 0.048
C. albicans; Passive permeation
  Absorbance: 0.157 and 0.129
C. albicans; both cathodal and anodal iontophoresis
  permeation across full thickness nail (detection in receiver fluid): detected in the receiver fluid
C. albicans; passive delivery
  permeation across full thickness nail (detection in receiver fluid): not with passive delivery

## OC(Cn1cncn1)(Cn1cncn1)c1ccc(F)cc1F [Fluconazole, fluconazole]
[1]; aqueous with cosolvent or surfactant or cyclodextrin, PBS and 5% Tween 80 (Table 4), read-out: Approximate visual solubility
  solubility: 1910 to 2170 µg/mL (≈ 6240 to 7090 µM)

## CCC(C)n1ncn(-c2ccc(N3CCN(c4ccc(OCC5COC(Cn6cncn6)(c6ccc(Cl)cc6Cl)O5)cc4)CC3)cc2)c1=O (stereo not shown) [Itraconazole, itraconazole]
[1]; [3]
  solubility: < 330 µg/mL

## Cc1cc(C2CCCCC2)n(O)c(=O)c1 [ciclopirox]
[1]
  solubility in receiver fluid (in words): good solubility
[1]; aqueous buffer, Approximate visual solubility
  solubility: < 388 µg/mL
C. albicans; Anodal iontophoresis (1000 μA, 1 hr), listed as Ciclopirox
  Absorbance: 0.045 and 0.044 and 0.068
C. albicans; Cathodal iontophoresis, controls: no C. albicans 0.037-0.039, no compound 0.126-0.160, listed as Ciclopirox
  Absorbance: 0.075 and 0.085 and 0.079
C. albicans; Passive permeation, listed as Ciclopirox
  Absorbance: 0.075 and 0.046
C. albicans
  permeation across full thickness nail: appeared to penetrate the nail regardless of whether current was applied

## CC(=O)N1CCN(c2ccc(OCC3COC(Cn4ccnc4)(c4ccc(Cl)cc4Cl)O3)cc2)CC1 (stereo not shown) [ketoconazole]
[1]; PBS and 5% Tween 80
  solubility in receiver fluid (in words): good solubility
[1]; aqueous buffer, 1% Propylene glycol in PBS, read-out: Approximate visual solubility
  solubility: < 554 µg/mL
[1]; aqueous with cosolvent or surfactant or cyclodextrin, 20 mM B hydroxylpropyl cyclodextrin in PBS, read-out: Approximate visual solubility
  solubility: < 1030 µg/mL
[1]; aqueous with cosolvent or surfactant or cyclodextrin, 200 mM B hydroxylpropyl cyclodextrin in PBS, read-out: Approximate visual solubility
  solubility: 2120 to 2370 µg/mL (≈ 3990 to 4460 µM)
[1]; aqueous with cosolvent or surfactant or cyclodextrin, 0.5% Tween-80 in PBS, read-out: Approximate visual solubility
  solubility: < 412 µg/mL
[1]; aqueous with cosolvent or surfactant or cyclodextrin, 1% Tween-80 in PBS, read-out: Approximate visual solubility
  solubility: < 458 µg/mL
[1]; aqueous with cosolvent or surfactant or cyclodextrin, 2% Tween-80 in PBS, read-out: Approximate visual solubility
  solubility: < 646 µg/mL
[1]; aqueous with cosolvent or surfactant or cyclodextrin, 5% Ethanol in PBS, read-out: Approximate visual solubility
  solubility: < 910 µg/mL
[1]; aqueous with cosolvent or surfactant or cyclodextrin, 5% Propylene glycol in PBS, read-out: Approximate visual solubility
  solubility: < 472 µg/mL
[1]; aqueous with cosolvent or surfactant or cyclodextrin, 5% Tween-80 in PBS, read-out: Approximate visual solubility
  solubility: 1280 to 1530 µg/mL (≈ 2410 to 2880 µM)
[1]; aqueous with cosolvent or surfactant or cyclodextrin, 10% Ethanol in PBS, read-out: Approximate visual solubility
  solubility: < 438 µg/mL
[1]; aqueous with cosolvent or surfactant or cyclodextrin, 20% Ethanol in PBS, read-out: Approximate visual solubility
  solubility: < 398 µg/mL

## PEG 400
[2]
  permeation of terbinafine HCl through the nail (in words): further improved the permeation of terbinafine HCl through the nail
